Literature values, collected in patent publication US20110166946A1, “METHOD OF PROMOTING AND SELLING COFFEE” (NESTEC S.A., priority 2008, published 2011).

Columns and labels:
[1] = preclinical models
[2] = after 50 μM chlorogenic acid intestinal perfusion, rat
[3] = in vivo

| Structure (SMILES) | time of appearance of conjugated forms of CA in plasma after ingestion [1] [min] | isoferulic acid detected in plasma [2] [µM] | time of appearance in blood after ingestion [3] [min] | time to reach baseline level after ingestion [3] [h] |
| --- | --- | --- | --- | --- |
| O=C(/C=C/c1ccc(O)c(O)c1)O[C@@H]1C[C@](O)(C(=O)O)C[C@@H](O)[C@H]1O [chlorogenic acid, 5-caffeoylquinic acid] | 30 | 0.12 |  |  |
| Oc1cc(O)c2c(c1)O[C@H](c1cc(O)c(O)c(O)c1)[C@H](O)C2 [EGC, (−)-Epigallocatechin] |  |  | ≤ 30 | ≤ 12 |
